In patent US20240376056A1, “PHENYL ACETAMIDE BASED IL-17A MODULATORS AND USES THEREOF” (DiCE Alpha, Inc., priority 2021, published 2024) one finds IC50 data, which are given here for 32 compounds.

The test has as its target T1, IL-17A/A (Homo sapiens, UniProt Q16552).
T1 construct: purchased Genscript Z03228
T1 sequence (Q16552 24-155): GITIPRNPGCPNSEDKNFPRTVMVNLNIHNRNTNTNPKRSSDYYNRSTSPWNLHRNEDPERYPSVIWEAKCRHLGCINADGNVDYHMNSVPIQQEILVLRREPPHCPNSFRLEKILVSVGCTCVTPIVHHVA
Nature of the test: HEK-Blue IL-17A/A inhibition assay (SEAP reporter). It is filed as cell-based. The following applies: HEK-Blue cells (HEK 293 expressing IL-17RA, IL-17RC, Act1); IL-17A/A stimulation; 20 hours; SEAP read at A630; 4-parameter fit. How it is done: The HEK-Blue #NC108637 […]. Cells were grown and prepared for assays according to the manufacturer's instructions. This cell line consists of HEK 293 cells that were designed to expressed IL-17R^A, IL-17RC, and the ActI adapter molecule, the combination of which. when stimulated by IL-17A/A activates a NFtcB promoter and drives expression of a recombinant Secreted Alkaline Phosphatase (SEAP) geneprotein. Media from the cells is then added to a development reagent (Quanti-Blue Substrate, Fisher #NC971 1613), and read at A630.
Compounds were titrated in DMSO. with a top final compound concentration of 10 uM, 1 uM, or 0.3 uM, and added to the cells immediately before adding IL-17A/A (Genscript #Z03228). The cells, compound, and IL-17A/A were then incubated for 20 hours before media was removed for SEAP analysis. The resulting inhibition curve was then analyzed using Graphpad Prism 7.0, and IC50 values were determined using a 4-parameter nonlinear fit. DMSO was added to a universal final concentration of 0.1% to optimze background.

Each structure is given as a SMILES string.

As usually defined, the IC50 is the point on the concentration scale where inhibition reaches its midpoint. For the compound `CC(C(=O)N(C)CC(F)(F)F)c1cc(F)c(NC(=O)[C@@H](NC(=O)c2ccnn2C(C)C)C(C2CC2)C2CC2)cc1OC(F)(F)F` (some centres unmarked) [Compound 257], the IC50 is under 100 nM.
Regarding `CC(C(=O)NCC(F)(F)F)c1cc(F)c(NC(=O)[C@@H](NC(=O)c2ccnn2C(C)C)C(C2CC2)C2CC2)cc1Cl` (single isomer, unassigned) [Compound 109], the IC50 lay within 100 to 1000 nM.
Turning to `CC(C(=O)NCC(F)(F)F)c1cc(F)c(NC(=O)[C@@H](NC(=O)c2ccnn2C)C(C2CC2)C2CC2)cc1OC(F)(F)F` (some centres unmarked) [Compound 258], the IC50 is under 100 nM.
The figure for `CCn1nccc1C(=O)N[C@H](C(=O)Nc1ccc([C@H](C)C(=O)NCC(F)(F)F)cc1F)C(C1CCC1)C1CCC1` [Compound 88, N-((S)-1,1-dicyclobutyl-3-((2-fluoro-4-((S)-1-oxo-1-((2,2,2-trifluoroethyl)amino)propan-2-yl)phenyl)amino)-3-oxopropan-2-yl)-1-ethyl-1H-pyrazole-5-carboxamide] is 100 to 1000 nM; for `COc1cc(NC(=O)[C@@H](NC(=O)c2ccnn2C(C)C)C(C2CC2)C2CC2)c(F)cc1C(C)C(=O)NCC(F)(F)F` (single isomer, unassigned) [Compound 122] it is over 1000 nM.
With `CC(C)n1nccc1C(=O)N[C@H](C(=O)Nc1ccc([C@H](C)C(=O)N2CCC(F)(F)C2)cc1F)C(C1CC1)C1CC1` [Compound 30], the IC50 lay in the range of 100 to 1000 nM.
As to `CCn1nccc1C(=O)N[C@H](C(=O)Nc1cc(C(F)(F)F)c(C(C)C(=O)N2CC(F)(F)C(F)(F)C2)cc1F)C(C1CC1)C1CC1` (some centres unmarked) [Compound 242], the IC50 lay within 100 to 1000 nM.
Regarding `COCC(C(=O)NCC(F)(F)F)c1ccc(NC(=O)[C@@H](NC(=O)c2ccnn2C(C)C)C(C2CC2)C2CC2)c(F)c1` (single isomer, unassigned) [Compound 104], the IC50 was over 1000 nM.
As to `CC(C)n1nccc1C(=O)N[C@H](C(=O)Nc1ccc([C@H](C)C(=O)N2CC(F)CC2C(F)(F)F)cc1F)C(C1CC1)C1CC1` (stereo partly drawn) [Compound 47, N-((2S)-1,1-dicyclopropyl-3-((2-fluoro-4-((2S)-1-(4-fluoro-2-(trifluoromethyl)pyrrolidin-1-yl)-1-oxopropan-2-yl)phenyl)amino)-3-oxopropan-2-yl)-1-isopropyl-1H-pyrazole-5-carboxamide], the IC50 was under 100 nM.
Consider `CNCc1cc(NC(=O)[C@@H](NC(=O)c2ccnn2C(C)C)C(C2CC2)C2CC2)c(F)cc1C(C)C(=O)NCC(F)(F)F` (some centres unmarked) [Compound 226], for which the IC50 was in the range of 100 to 1000 nM.
The figure for `Cc1cc(NC(=O)[C@@H](NC(=O)c2ccnn2C(C)C)C(C2CC2)C2CC2)c(F)cc1C(C)C(=O)NC(C1CCOC1)C(F)(F)F` (some centres unmarked) [Compound 209] is under 100 nM; for `Cc1cc(NC(=O)[C@@H](NC(=O)c2ccnn2C(C)C)C(C2CC2)C2CC2)c(F)cc1[C@H](C)C(=O)NCC(F)(F)F` (single isomer, unassigned) [Compound 98] it is under 100 nM.
In the case of `CCn1nccc1C(=O)N[C@H](C(=O)Nc1ccc([C@H](C)C(=O)N2CC(F)(F)C2)cc1F)C(C1CC1)C1CC1` [Compound 15, N-((S)-1,1-dicyclopropyl-3-((4-((S)-1-(3,3-difluoroazetidin-1-yl)-1-oxopropan-2-yl)-2-fluorophenyl)amino)-3-oxopropan-2-yl)-1-ethyl-1H-pyrazole-5-carboxamide], the IC50 was 100 to 1000 nM.
Take `COc1cc(NC(=O)[C@@H](NC(=O)c2ccnn2C(C)C)C(C2CC2)C2CC2)c(F)cc1C(C)C(=O)N1CC(O)CC1C(F)(F)F` (single isomer, unassigned) [Compound 213]: the IC50 was in the range of 100 to 1000 nM.
Consider `C[C@H](C(=O)NCC(F)(F)F)c1ccc(NC(=O)[C@@H](NC(=O)c2ccnn2CCN2CC(F)(F)C2)C(C2CC2)C2CC2)c(F)c1` [Compound 94, N-((S)-1.1-dicyclopropyl-3-((2-fluoro-4-((S)-1-oxo-1-((2,2,2-trifluoroethyl)amino)propan-2-yl)phenyl)amino)-3-oxopropan-2-yl)-1-(2-(3,3-difluoroazetidin-1-yl)ethyl)-1H-pyrazole-5-carboxamide], for which the IC50 was 100 to 1000 nM.
As for `CC(C)n1nccc1C(=O)N[C@H](C(=O)Nc1ccc([C@H](C)C(=O)N(C)CC(F)(F)F)cc1F)C1CCC(F)(F)CC1` [Compound 51, N-((S)-1-(4,4-difluorocyclohexyl)-2-((2-fluoro-4-((S)-1-(methyl(2,2,2-trifluoroethyl)amino)-1-oxopropan-2-yl)phenyl)amino)-2-oxoethyl)-1-isopropyl-1H-pyrazole-5-carboxamide], the figure is 100 to 1000 nM.
In the case of `CC[C@@H](c1ccc(F)cc1)[C@H](NC(=O)c1ccnn1CC)C(=O)Nc1cc(C)c(C(C)C(=O)N(C)CC(F)(F)F)cc1F` (some centres unmarked) [Compound 203], the IC50 is under 100 nM.
Regarding `CC(C)n1nccc1C(=O)N[C@H](C(=O)Nc1ccc([C@H](C)C(=O)NC2CNCC2(F)F)cc1F)C(C1CC1)C1CC1` (single isomer, unassigned) [Compound 133], the IC50 is over 1000 nM.
For the compound `COc1cc(NC(=O)[C@@H](NC(=O)c2ccnn2C(C)C)C(C2CC2)C2CC2)c(F)cc1C(C)C(=O)N1CC(O)CC1C(F)(F)F` (single isomer, unassigned) [Compound 183], the IC50 was over 1000 nM.
`CC(C)n1nccc1C(=O)N[C@H](C(=O)Nc1ccc([C@H](C)C(=O)N2CCOC2C(F)(F)F)cc1F)C(C1CC1)C1CC1` (single isomer, unassigned) [Compound 49]: the IC50 lay in the range of 100 to 1000 nM.
The figure for `CCn1nccc1C(=O)N[C@H](C(=O)Nc1ccc([C@@H](C)C(=O)N(C)CC(F)(F)F)cc1F)C1CCCCCC1` (single isomer, unassigned) [Compound 3] is 100 to 1000 nM.
As to `CC(C(=O)NCC(F)(F)F)c1cc(F)c(NC(=O)[C@@H](NC(=O)c2ccnn2C(C)C)C(C2CC2)C2CC2)cc1N1CCOCC1` (some centres unmarked) [Compound 188], the IC50 is under 100 nM.
As for `CC(C)n1nccc1C(=O)N[C@H](C(=O)Nc1ccc([C@H](C)C(=O)NC(C2CCOC2)C(F)(F)F)cc1F)C(C1CC1)C1CC1` (stereo partly drawn) [Compound 67, N-[(1S)-1-(dicyclopropylmethyl)-2-[2-fluoro-4-[(1S)-1-methyl-2-oxo-2-[(2,2,2-trifluoro-1-tetrahydrofuran-3-yl-ethyl)amino]ethyl]anilino]-2-oxo-ethyl]-2-isopropyl-pyrazole-3-carboxamide], the figure is under 100 nM.
With `Cc1cc(NC(=O)[C@@H](NC(=O)c2ccnn2C)C2CCC(F)(F)CC2)c(F)cc1C(C)C(=O)NCC(F)(F)F` (some centres unmarked) [Compound 215], the IC50 is over 1000 nM.
As for `C[C@H](C(=O)NCC(F)(F)F)c1ccc(NC(=O)[C@@H](NC(=O)c2ccnn2CCN2CCOCC2)C(C2CC2)C2CC2)c(F)c1` [Compound 89, N-((S)-1,1-dicyclopropyl-3-((2-fluoro-4-((S)-1-oxo-1-((2,2,2-trifluoroethyl)amino)propan-2-yl)phenyl)amino)-3-oxopropan-2-yl)-1-(2-morpholinoethyl)-1H-pyrazole-5-carboxamide], the IC50 lay in the range of 100 to 1000 nM.
With `CCn1nccc1C(=O)N[C@H](C(=O)Nc1ccc([C@H](C)C(=O)NC(CCO)C(F)(F)F)cc1F)C(C1CC1)C1CC1` (stereo partly drawn) [Compound 12, N-((2S)-1,1-dicyclopropyl-3-((2-fluoro-4-((2S)-1-oxo-1-((1,1,1-trifluoro-4-hydroxybutan-2-yl)amino)propan-2-yl)phenyl)amino)-3-oxopropan-2-yl)-1-ethyl-1H-pyrazole-5-carboxanude], the IC50 is 100 to 1000 nM.
In the case of `CC(C(=O)N(C)CC(F)(F)F)c1cc(F)c(NC(=O)[C@@H](NC(=O)c2ccnn2C(C)C)C(C2CC2)C2CC2)cc1N(C)C` (some centres unmarked) [Compound 233], the IC50 is over 1000 nM.
As for `CC(C)c1nonc1C(=O)N[C@H](C(=O)Nc1cc(C(F)(F)F)c(C(C)C(=O)NCC(F)(F)F)cc1F)C(C1CC1)C1CC1` (some centres unmarked) [Compound 238], the figure is 100 to 1000 nM; as for `CCn1nccc1C(=O)N[C@H](C(=O)Nc1ccc(C(COC)C(=O)N(C)CC(F)(F)F)cc1F)C1CCCCCC1` (single isomer, unassigned) [Compound 102, N—((I S)-1-cycloheptyl-2-((2-fluoro-4-(3-methoxy-1-(methyl(2,2,2-trifluoroethyl)amino)-1-oxopropan-2-yl)phenyl)amino)-2-oxoethyl)-1-ethyl-1H-pyrazole-5-carboxamide], over 1000 nM; as for `CC(C)n1nccc1C(=O)N[C@H](C(=O)Nc1ccc([C@H](C)C(=O)N(CC(F)(F)F)CC(F)(F)F)cc1F)C(C1CC1)C1CC1` [Compound 42, N-((S)-1-((4-((S)-1-(bis(2,2,2-trifluoroethyl)amino)-1-oxopropan-2-yl)-2-fluorophenyl)amino)-3,3-dicyclopropyl-1-oxopropan-2-yl)-1-isopropyl-1H-pyrazole-5-carboxamide], 100 to 1000 nM.
Consider `CC(C(=O)N1CCCN1)c1ccc(NC(=O)[C@@H](NC(=O)c2ccnn2C(C)C)C(C2CC2)C2CC2)c(F)c1` (some centres unmarked) [Compound 235], for which the IC50 is over 1000 nM.
As for `CCn1nccc1C(=O)N[C@H](C(=O)Nc1ccc([C@H](C)C(=O)N(C)CC(F)(F)F)cc1F)C(C1CC1)C1CC1` [Compound 68, N-((S)-1,1-dicyclopropyl-3-((2-fluoro-4-((S)-1-(methyl(2,2,2-trifluoroethyl)amino)-1-oxopropan-2-yl)phenyl)amino)-3-oxopropan-2-yl)-1-ethyl-1H-pyrazole-5-carboxamide], the IC50 is under 100 nM.
